Experimental data reported in PubChem BioAssay (NCI).
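Five compound concentrations were applied to cells in 96-well plates for 48 hours; endpoints were derived by simple linear interpolation of the resulting dose-response curve. At the GI50, growth is halved. TGI is the concentration that stops growth completely.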

Experiments:
Experiment in all cases: NCI tumour cell line growth inhibition, 48 h
[1] = system: HCC-2998 colon
[2] = system: NCI-H460 lung
[3] = system: HS 578T breast
[4] = system: MCF7 breast
[5] = system: SNB-75 CNS
[6] = system: CCRF-CEM leukemia
[7] = system: SF-268 CNS
[8] = system: KM12 colon
[9] = system: HCT-15 colon
[10] = system: A498 renal
[11] = system: OVCAR-5 ovarian
[12] = system: NCI-H23 lung
[13] = system: SK-OV-3 ovarian
[14] = system: NCI-H522 lung
[15] = system: CAKI-1 renal
[16] = system: SF-295 CNS
[17] = system: HCT-116 colon
[18] = system: IGROV1 ovarian
[19] = system: M14 melanoma
[20] = system: COLO 205 colon
[21] = system: SF-539 CNS
[22] = system: MALME-3M melanoma
[23] = system: BT-549 breast
[24] = system: UACC-257 melanoma
[25] = system: OVCAR-3 ovarian
[26] = system: ACHN renal
[27] = system: SNB-19 CNS
[28] = system: HOP-62 NSCLC
[29] = system: SK-MEL-28 melanoma
[30] = system: MDA-MB-231 breast
[31] = system: NCI/ADR-RES ovarian
[32] = system: MDA-MB-435
[33] = system: 786-0 renal
[34] = system: TK-10 renal
[35] = system: LOX IMVI melanoma
[36] = system: HOP-92 NSCLC
[37] = system: MOLT-4 leukemia
[38] = system: NCI-H226 lung
[39] = system: RPMI-8226 leukemia
[40] = system: SK-MEL-5 melanoma
[41] = system: UO-31 renal
[42] = system: K-562 leukemia
[43] = system: OVCAR-8 ovarian
[44] = system: U251 CNS
[45] = system: EKVX NSCLC
[46] = system: T-47D breast
[47] = system: HT29 colon
[48] = system: SN12C renal
[49] = system: SW-620 colon
[50] = system: SK-MEL-2 melanoma
[51] = system: UACC-62 melanoma
[52] = system: SR leukemia
[53] = system: HL-60(TB) leukemia
[54] = system: PC-3 prostate
[55] = system: OVCAR-4 ovarian
[56] = system: A549 NSCLC
[57] = system: DU-145 prostate

In the case of `CC(Nc1ncnc2ccc(-c3cnc(N)nc3)cc12)c1ccccc1` (centres undefined), the GI50 [1] is reported as 8.05 µM, the TGI [1] is reported as 50.8 µM and the GI50 [2] is reported as 4.79 µM. It also gave a TGI [2] of 31.1 µM, a GI50 [3] of 2.15 µM and a TGI [3] of 8.64 µM. It also gave a GI50 [4] of 4.1 µM, a TGI [4] of 24.4 µM and a GI50 [5] of 2.76 µM. The TGI [5] was 23.1 µM, the GI50 [6] was 7.7 µM and the TGI [6] was over 100 µM. It also gave a GI50 [7] of 5.26 µM, a TGI [7] of 34.5 µM and a GI50 [8] of 7.91 µM. For the same compound, the TGI [8] was 36.3 µM, the GI50 [9] was 4.12 µM and the TGI [9] was 54.6 µM. For the same compound, the GI50 [10] was 1.42 µM, the TGI [10] was 6.52 µM and the GI50 [11] was 3.4 µM. It also gave a TGI [11] of 37.5 µM, a GI50 [12] of 9.2 µM and a TGI [12] of 37.4 µM. The GI50 [13] was 6.67 µM, the TGI [13] was over 100 µM and the GI50 [14] was 4.9 µM. It also gave a TGI [14] of over 100 µM, a GI50 [15] of 3.17 µM and a TGI [15] of 17.8 µM. The GI50 [16] was 4.5 µM, the TGI [16] was 27 µM and the GI50 [17] was 8.01 µM. It also gave a TGI [17] of 24.3 µM, a GI50 [18] of 1.95 µM and a TGI [18] of 8.26 µM. It also gave a GI50 [19] of 6.76 µM, a TGI [19] of 31.6 µM and a GI50 [20] of 13.5 µM. The TGI [20] was 47.5 µM, the GI50 [21] was 6.2 µM and the TGI [21] was 19.2 µM. The GI50 [22] was 3.03 µM, the TGI [22] was 19.5 µM and the GI50 [23] was 2.22 µM. The TGI [23] was 12 µM, the GI50 [24] was 23.9 µM and the TGI [24] was over 100 µM. For the same compound, the GI50 [25] was 4.59 µM, the TGI [25] was 20.1 µM and the GI50 [26] was 3.02 µM. The TGI [26] was 18.6 µM, the GI50 [27] was 9.29 µM and the TGI [27] was 44.1 µM. For the same compound, the GI50 [28] was 5.76 µM, the TGI [28] was over 100 µM and the GI50 [29] was 9.05 µM. The TGI [29] was 53.1 µM, the GI50 [30] was 3.38 µM and the TGI [30] was 15.5 µM. For the same compound, the GI50 [31] was 9.42 µM, the TGI [31] was 47.3 µM and the GI50 [32] was 11.1 µM. It also gave a TGI [32] of 42 µM, a GI50 [33] of 5.33 µM and a TGI [33] of over 100 µM. It also gave a GI50 [34] of 1.59 µM, a TGI [34] of 14.2 µM and a GI50 [35] of 4.26 µM. It also gave a TGI [35] of 16.9 µM, a GI50 [36] of 1.04 µM and a TGI [36] of 5.62 µM. For the same compound, the GI50 [37] was 5.37 µM, the TGI [37] was over 100 µM and the GI50 [38] was 3.57 µM. The TGI [38] was 22 µM, the GI50 [39] was 4.66 µM and the TGI [39] was 42.9 µM. The GI50 [40] was 7.28 µM, the TGI [40] was 20.8 µM and the GI50 [41] was 1.29 µM. It also gave a TGI [41] of 16.4 µM, a GI50 [42] of 6.32 µM and a TGI [42] of over 100 µM. It also gave a GI50 [43] of 10.8 µM, a TGI [43] of 30.2 µM and a GI50 [44] of 6.92 µM. The TGI [44] was 60 µM, the GI50 [45] was 1.97 µM and the TGI [45] was 10.4 µM. For the same compound, the GI50 [46] was 1.91 µM, the TGI [46] was 46.4 µM and the GI50 [47] was 8.41 µM. It also gave a TGI [47] of 46.4 µM, a GI50 [48] of 2.9 µM and a TGI [48] of 15.7 µM. The GI50 [49] was 15.2 µM, the TGI [49] was 51.7 µM and the GI50 [50] was 20.4 µM. For the same compound, the TGI [50] was over 100 µM, the GI50 [51] was 4.48 µM and the TGI [51] was 18.2 µM. The GI50 [52] was 4.08 µM, the TGI [52] was over 100 µM and the GI50 [53] was 14.8 µM. It also gave a TGI [53] of 43.7 µM, a GI50 [54] of 4.05 µM and a TGI [54] of over 100 µM. It also gave a GI50 [55] of 4.55 µM, a TGI [55] of 43.4 µM and a GI50 [56] of 6.48 µM. It also gave a TGI [56] of over 100 µM, a GI50 [57] of 4.34 µM and a TGI [57] of over 100 µM.
